Laboratory results taken from the NIST ThermoML archive (doi:10.1007/s10765-014-1730-1).

Conditions: Vibrating tube method; for mass density: Liquid; for specific volume: Gas

F/C=C\C(F)(F)F [(Z)-1,3,3,3-tetrafluoro-1-propene]
Conditions | mass density [kg/m3] | specific volume [m3/kg]
283.15 K, 19923 kPa | 1312.8 | –
283.15 K, 30988 kPa | 1335.2 | –
283.16 K, 188 kPa | 1262.2 | –
283.16 K, 714 kPa | 1263.9 | –
283.16 K, 1728 kPa | 1266.9 | –
283.16 K, 2742 kPa | 1270 | –
283.16 K, 3759 kPa | 1273 | –
283.16 K, 4785 kPa | 1275.9 | –
283.16 K, 5794 kPa | 1278.6 | –
283.16 K, 6808 kPa | 1281.4 | –
283.16 K, 7810 kPa | 1284.1 | –
283.16 K, 8829 kPa | 1286.8 | –
283.16 K, 9831 kPa | 1289.3 | –
283.16 K, 10842 kPa | 1291.8 | –
283.16 K, 11848 kPa | 1294.3 | –
283.16 K, 12862 kPa | 1296.7 | –
283.16 K, 13869 kPa | 1299.3 | –
283.16 K, 14880 kPa | 1301.5 | –
283.16 K, 15887 kPa | 1304 | –
283.16 K, 16901 kPa | 1306.2 | –
283.16 K, 17911 kPa | 1308.5 | –
283.16 K, 18920 kPa | 1310.8 | –
283.16 K, 20928 kPa | 1315.1 | –
283.16 K, 21929 kPa | 1317.3 | –
283.16 K, 22938 kPa | 1319.3 | –
283.16 K, 23940 kPa | 1321.4 | –
283.16 K, 24945 kPa | 1323.4 | –
283.16 K, 25950 kPa | 1325.4 | –
283.16 K, 26964 kPa | 1327.4 | –
283.16 K, 27969 kPa | 1329.6 | –
283.16 K, 28981 kPa | 1331.5 | –
283.16 K, 29981 kPa | 1333.4 | –
283.16 K, 32001 kPa | 1337.1 | –
283.16 K, 33010 kPa | 1339 | –
283.16 K, 34026 kPa | 1340.8 | –
293.14 K, 707 kPa | 1238 | –
293.14 K, 3747 kPa | 1248.2 | –
293.14 K, 6783 kPa | 1257.5 | –
293.14 K, 8789 kPa | 1263.5 | –
293.14 K, 21891 kPa | 1296.5 | –
293.14 K, 22907 kPa | 1298.7 | –
293.14 K, 23918 kPa | 1301 | –
293.14 K, 24927 kPa | 1303.2 | –
293.14 K, 31982 kPa | 1317.6 | –
293.15 K, 202 kPa | 1236.1 | –
293.15 K, 1711 kPa | 1241.3 | –
293.15 K, 2717 kPa | 1244.8 | –
293.15 K, 4772 kPa | 1251.4 | –
293.15 K, 5777 kPa | 1254.5 | –
293.15 K, 7789 kPa | 1260.4 | –
293.15 K, 9806 kPa | 1266.1 | –
293.15 K, 10808 kPa | 1269.1 | –
293.15 K, 11817 kPa | 1271.7 | –
293.15 K, 12827 kPa | 1274.3 | –
293.15 K, 13836 kPa | 1277 | –
293.15 K, 14850 kPa | 1279.6 | –
293.15 K, 15856 kPa | 1282.1 | –
293.15 K, 16856 kPa | 1284.7 | –
293.15 K, 17859 kPa | 1287 | –
293.15 K, 18869 kPa | 1289.6 | –
293.15 K, 19873 kPa | 1292 | –
293.15 K, 20882 kPa | 1294.3 | –
293.15 K, 25932 kPa | 1305.2 | –
293.15 K, 26941 kPa | 1307.2 | –
293.15 K, 27957 kPa | 1309.7 | –
293.15 K, 28963 kPa | 1311.6 | –
293.15 K, 29972 kPa | 1313.7 | –
293.15 K, 30977 kPa | 1315.7 | –
293.15 K, 32993 kPa | 1319.5 | –
293.15 K, 33996 kPa | 1321.6 | –
303.15 K, 82.1 kPa | – | 0.259
303.15 K, 113.7 kPa | – | 0.185
303.15 K, 184.2 kPa | – | 0.111
303.15 K, 190.7 kPa | – | 0.107
303.15 K, 1705 kPa | 1215.3 | –
303.15 K, 3735 kPa | 1222.8 | –
303.15 K, 4759 kPa | 1226.3 | –
303.15 K, 7774 kPa | 1236.5 | –
303.15 K, 8779 kPa | 1239.7 | –
303.15 K, 10782 kPa | 1245.9 | –
303.15 K, 12803 kPa | 1251.9 | –
303.15 K, 13813 kPa | 1254.8 | –
303.15 K, 14822 kPa | 1257.6 | –
303.15 K, 15833 kPa | 1260.3 | –
303.15 K, 16844 kPa | 1263 | –
303.15 K, 17858 kPa | 1265.7 | –
303.15 K, 18870 kPa | 1268.3 | –
303.15 K, 19882 kPa | 1270.9 | –
303.15 K, 20888 kPa | 1273.4 | –
303.15 K, 21903 kPa | 1275.9 | –
303.15 K, 22911 kPa | 1278.3 | –
303.15 K, 23920 kPa | 1280.7 | –
303.15 K, 24935 kPa | 1283 | –
303.15 K, 25951 kPa | 1285.4 | –
303.15 K, 26951 kPa | 1287.7 | –
303.15 K, 27967 kPa | 1289.9 | –
303.15 K, 28968 kPa | 1292.1 | –
303.15 K, 29985 kPa | 1294.3 | –
303.15 K, 30991 kPa | 1296.4 | –
303.15 K, 31993 kPa | 1298.6 | –
303.15 K, 32995 kPa | 1300.6 | –
303.15 K, 34000 kPa | 1302.7 | –
303.16 K, 217 kPa | 1209.4 | –
303.16 K, 692 kPa | 1211.4 | –
303.16 K, 2712 kPa | 1219.1 | –
303.16 K, 5769 kPa | 1229.9 | –
303.16 K, 6772 kPa | 1233.2 | –
303.16 K, 9780 kPa | 1242.9 | –
303.16 K, 11794 kPa | 1249 | –
308.15 K, 83.4 kPa | – | 0.259
308.15 K, 115.8 kPa | – | 0.185
308.15 K, 187.8 kPa | – | 0.111
308.15 K, 194.6 kPa | – | 0.107
308.15 K, 215.4 kPa | – | 0.095
313.15 K, 84.9 kPa | – | 0.259
313.15 K, 117.9 kPa | – | 0.185
313.15 K, 191.5 kPa | – | 0.111
313.15 K, 198.5 kPa | – | 0.107
313.15 K, 325 kPa | 1182 | –
313.15 K, 777 kPa | 1184 | –
313.15 K, 1789 kPa | 1188.5 | –
313.15 K, 2791 kPa | 1192.7 | –
313.15 K, 3819 kPa | 1196.9 | –
313.15 K, 4846 kPa | 1201.1 | –
313.15 K, 5847 kPa | 1204.9 | –
313.15 K, 6862 kPa | 1208.7 | –
313.15 K, 7865 kPa | 1212.3 | –
313.15 K, 8867 kPa | 1215.8 | –
313.15 K, 9876 kPa | 1219.3 | –
313.15 K, 10884 kPa | 1222.7 | –
313.15 K, 11896 kPa | 1226 | –
313.15 K, 12909 kPa | 1229.2 | –
313.15 K, 13913 kPa | 1232.4 | –
313.15 K, 14924 kPa | 1235.4 | –
313.15 K, 15924 kPa | 1238.4 | –
313.15 K, 16925 kPa | 1241.4 | –
313.15 K, 17931 kPa | 1244.2 | –
313.15 K, 18933 kPa | 1247 | –
313.15 K, 19934 kPa | 1249.8 | –
313.15 K, 20940 kPa | 1252.5 | –
313.15 K, 21945 kPa | 1255.1 | –
313.15 K, 22953 kPa | 1257.8 | –
313.15 K, 23961 kPa | 1260.4 | –
313.15 K, 24962 kPa | 1262.9 | –
313.15 K, 25963 kPa | 1265.3 | –
313.15 K, 26966 kPa | 1267.7 | –
313.15 K, 27968 kPa | 1270.1 | –
313.15 K, 28969 kPa | 1272.5 | –
313.15 K, 29976 kPa | 1274.8 | –
313.15 K, 30978 kPa | 1277 | –
313.15 K, 31986 kPa | 1279.3 | –
313.15 K, 32992 kPa | 1281.6 | –
313.15 K, 34000 kPa | 1283.8 | –
313.16 K, 219.8 kPa | – | 0.095
315.15 K, 270.7 kPa | – | 0.076
318.15 K, 86.3 kPa | – | 0.26
318.15 K, 120 kPa | – | 0.185
318.15 K, 195.2 kPa | – | 0.111
318.15 K, 202.2 kPa | – | 0.107
318.15 K, 224 kPa | – | 0.095
320.15 K, 276.3 kPa | – | 0.076
323.14 K, 4763 kPa | 1174.1 | –
323.14 K, 16843 kPa | 1218.6 | –
323.14 K, 21889 kPa | 1233.7 | –
323.14 K, 29946 kPa | 1254.9 | –
323.14 K, 30956 kPa | 1257.3 | –
323.15 K, 87.8 kPa | – | 0.26
323.15 K, 122.1 kPa | – | 0.185
323.15 K, 198.9 kPa | – | 0.111
323.15 K, 206 kPa | – | 0.107
323.15 K, 228.3 kPa | – | 0.095
323.15 K, 363.2 kPa | – | 0.057
323.15 K, 392 kPa | 1153.1 | –
323.15 K, 686 kPa | 1154.6 | –
323.15 K, 1702 kPa | 1159.8 | –
323.15 K, 2712 kPa | 1164.7 | –
323.15 K, 3731 kPa | 1169.5 | –
323.15 K, 5778 kPa | 1178.4 | –
323.15 K, 6786 kPa | 1182.7 | –
323.15 K, 7786 kPa | 1186.7 | –
323.15 K, 8786 kPa | 1190.6 | –
323.15 K, 9791 kPa | 1194.4 | –
323.15 K, 10796 kPa | 1198.2 | –
323.15 K, 11803 kPa | 1201.8 | –
323.15 K, 12805 kPa | 1205.3 | –
323.15 K, 13812 kPa | 1208.8 | –
323.15 K, 14822 kPa | 1212.1 | –
323.15 K, 15831 kPa | 1215.4 | –
323.15 K, 17849 kPa | 1221.7 | –
323.15 K, 18857 kPa | 1224.9 | –
323.15 K, 19866 kPa | 1227.9 | –
323.15 K, 20875 kPa | 1230.8 | –
323.15 K, 22900 kPa | 1236.5 | –
323.15 K, 23908 kPa | 1239.3 | –
323.15 K, 24908 kPa | 1242 | –
323.15 K, 25914 kPa | 1244.6 | –
323.15 K, 26926 kPa | 1247.3 | –
323.15 K, 27933 kPa | 1249.8 | –
323.15 K, 28945 kPa | 1252.4 | –
323.15 K, 31966 kPa | 1259.8 | –
323.15 K, 32979 kPa | 1262.2 | –
323.15 K, 33992 kPa | 1264.5 | –
325.15 K, 281.9 kPa | – | 0.076
328.15 K, 89.2 kPa | – | 0.26
328.15 K, 124.1 kPa | – | 0.185
